Reference: PubChem BioAssay AID328 (DTP/NCI, 2004)
Several values for one entry are separate records, joined by “and”; a condition that tells them apart may be missing. Equal entries are not always repeated. Toxic doses and inconclusive results are not listed.

Test system: BDF1 mice, P388 leukemia ip, median survival T/C
Test: NCI In Vivo Anticancer Drug Screen. Data for tumor model P388 Leukemia (intraperitoneal) in B6D2F1 (BDF1) mice
Details: endpoint: median survival time, higher = longer survival
Summary of the method: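 Steps: implant the tumour, treat one group with compound and another with vehicle, record survival, then divide treated by control.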

[1] = dose: 25.0 mg/kg/injection, schedule: Q01DX009 (ip), vehicle: saline with Tween-80
[2] = dose: 100.0 mg/kg/injection, schedule: Q01DX009 (ip), vehicle: saline with Tween-80
[3] = dose: 100.0 mg/kg/injection, schedule: Q04DX003 (ip), vehicle: Klucel (hydroxypropylcellulose) (HPC)
[4] = dose: 200.0 mg/kg/injection, schedule: Q04DX003 (ip), vehicle: Klucel (hydroxypropylcellulose) (HPC)
[5] = dose: 50.0 mg/kg/injection, schedule: Q01DX009 (ip), vehicle: saline with Tween-80
[6] = dose: 50.0 mg/kg/injection, schedule: Q04DX003 (ip), vehicle: saline with Tween-80
[7] = dose: 100.0 mg/kg/injection, schedule: Q04DX003 (ip), vehicle: saline with Tween-80
[8] = dose: 200.0 mg/kg/injection, schedule: Q01DX009 (ip), vehicle: saline with Tween-80
[9] = dose: 200.0 mg/kg/injection, schedule: Q04DX003 (ip), vehicle: saline with Tween-80
[10] = dose: 400.0 mg/kg/injection, schedule: Q04DX003 (ip), vehicle: saline with Tween-80
[11] = dose: 12.5 mg/kg/injection, schedule: Q01DX009 (ip), vehicle: Klucel (hydroxypropylcellulose) (HPC)
[12] = dose: 25.0 mg/kg/injection, schedule: Q01DX009 (ip), vehicle: Klucel (hydroxypropylcellulose) (HPC)
[13] = dose: 12.5 mg/kg/injection, schedule: Q04DX003 (ip), vehicle: saline
[14] = dose: 25.0 mg/kg/injection, schedule: Q04DX003 (ip), vehicle: saline
[15] = dose: 100.0 mg/kg/injection, schedule: Q01DX009 (ip), vehicle: Klucel (hydroxypropylcellulose) (HPC)
[16] = dose: 200.0 mg/kg/injection, schedule: Q01DX009 (ip), vehicle: Klucel (hydroxypropylcellulose) (HPC)
[17] = dose: 400.0 mg/kg/injection, schedule: Q01DX009 (ip), vehicle: Klucel (hydroxypropylcellulose) (HPC)
[18] = dose: 400.0 mg/kg/injection, schedule: Q04DX003 (ip), vehicle: Klucel (hydroxypropylcellulose) (HPC)
[19] = dose: 50.0 mg/kg/injection, schedule: Q01DX009 (ip), vehicle: Klucel (hydroxypropylcellulose) (HPC)

COc1cccc2c1C(=O)c1c(O)c3c(c(O)c1C2=O)C[C@@](O)(/C(C)=N/NC(=O)c1ccc(Cl)cc1)C[C@@H]3OC1CC(N)C(O)C(C)O1 (some centres undefined)
T/C (dose: 0.5 mg/kg/injection, schedule: Q01DX009 (ip), vehicle: water): 110 % of control
T/C (dose: 1.0 mg/kg/injection, schedule: Q01DX009 (ip), vehicle: water): 107 % of control and 214 % of control
T/C (dose: 2.0 mg/kg/injection, schedule: Q01DX009 (ip), vehicle: water): 303 % of control
T/C (dose: 4.0 mg/kg/injection, schedule: Q01DX009 (ip), vehicle: water): 238 % of control and 115 % of control
T/C (dose: 8.0 mg/kg/injection, schedule: Q01DX009 (ip), vehicle: water): 164 % of control

CCOc1ccccc1NC(=O)c1ccc(Cl)cc1
T/C (dose: 100.0 mg/kg/injection, schedule: Q01DX001 (ip), vehicle: saline with Tween-80): 90 % of control
T/C (dose: 200.0 mg/kg/injection, schedule: Q01DX001 (ip), vehicle: saline with Tween-80): 90 % of control
T/C (dose: 400.0 mg/kg/injection, schedule: Q01DX001 (ip), vehicle: saline with Tween-80): 95 % of control

C[Si](C)(C)O/C=C1\CCCCC1=O
T/C [1]: 110 % of control
T/C [2]: 117 % of control

C/C(=C\c1ccc2c(c1)OCO2)[N+](=O)[O-]
T/C (dose: 85.0 mg/kg/injection, schedule: Q04DX003 (ip), vehicle: Klucel (hydroxypropylcellulose) (HPC)): 118 % of control
T/C [3]: 110 % of control
T/C (dose: 135.0 mg/kg/injection, schedule: Q04DX003 (ip), vehicle: Klucel (hydroxypropylcellulose) (HPC)): 109 % of control
T/C [4]: 100 % of control and 109 % of control

COC(=O)C1CC(=O)N(C)c2sc(C)c(C)c2C1=O (centres undefined)
T/C (dose: 25.0 mg/kg/injection, schedule: Q04DX003 (ip), vehicle: saline with Tween-80): 107 % of control
T/C [5]: 111 % of control
T/C [6]: 92 % of control and 94 % of control
T/C [2]: 111 % of control
T/C [7]: 92 % of control
T/C [8]: 92 % of control
T/C [9]: 95 % of control and 104 % of control
T/C [10]: 100 % of control and 107 % of control
T/C (dose: 500.0 mg/kg/injection, schedule: Q04DX003 (ip), vehicle: saline with Tween-80): 100 % of control

COc1cccc2c1C(=O)c1c(O)c3c(c(O)c1C2=O)C[C@@](O)(C(=O)COC(=O)c1cccnc1)C[C@@H]3OC1CC(N)C(O)C(C)O1 (some centres undefined)
T/C (dose: 1.32 mg/kg/injection, schedule: Q01DX009 (ip), vehicle: saline): 195 % of control
T/C (dose: 2.0 mg/kg/injection, schedule: Q01DX009 (ip), vehicle: saline): 237 % of control

CCCCCCC(C)NCC(O)COc1cccc(C)c1 (centres undefined)
T/C (dose: 3.12 mg/kg/injection, schedule: Q01DX009 (ip), vehicle: Klucel (hydroxypropylcellulose) (HPC)): 113 % of control
T/C [11]: 116 % of control
T/C [12]: 120 % of control

C1=C(c2ccccc2)CS1
T/C (dose: 25.0 mg/kg/injection, schedule: Q01DX001 (ip), vehicle: saline with Tween-80): 104 % of control
T/C (dose: 50.0 mg/kg/injection, schedule: Q01DX001 (ip), vehicle: saline with Tween-80): 101 % of control

O=C1NNCc2c1oc1ccccc21
T/C [5]: 96 % of control
T/C [2]: 114 % of control
T/C [8]: 90 % of control

CCCCCCC(C)[N+](C)(C)C (centres undefined)
T/C (dose: 6.25 mg/kg/injection, schedule: Q04DX003 (ip), vehicle: saline): 116 % of control
T/C [13]: 100 % of control
T/C [14]: 113 % of control

O=C(c1ccc[nH]1)C(Cl)(Cl)Cl
T/C [5]: 108 % of control
T/C [2]: 117 % of control
T/C [8]: 115 % of control

NC(=O)NN=C1CCC(c2ccccc2)CC1 (centres undefined)
T/C [5]: 112 % of control
T/C [2]: 112 % of control

CCCCCCCCCCCC[N+](C)(C)CC(O)C[N+](C)(C)CCCCCCCCCCCC
T/C (dose: 3.13 mg/kg/injection, schedule: Q01DX009 (ip), vehicle: saline): 102 % of control
T/C (dose: 6.25 mg/kg/injection, schedule: Q01DX009 (ip), vehicle: saline): 107 % of control

CCCCCCCCOP(=O)(N1CC1)N1CC1
T/C [13]: 170 % of control
T/C (dose: 14.0 mg/kg/injection, schedule: Q04DX003 (ip), vehicle: saline): 150 % of control
T/C (dose: 21.0 mg/kg/injection, schedule: Q04DX003 (ip), vehicle: saline): 154 % of control
T/C (dose: 25.0 mg/kg/injection, schedule: Q01DX009 (ip), vehicle: saline): 183 % of control
T/C [14]: 160 % of control
T/C (dose: 33.0 mg/kg/injection, schedule: Q01DX009 (ip), vehicle: saline): 211 % of control
T/C (dose: 33.0 mg/kg/injection, schedule: Q04DX003 (ip), vehicle: saline): 180 % of control and 222 % of control
T/C (dose: 50.0 mg/kg/injection, schedule: Q01DX009 (ip), vehicle: saline): 230 % of control and 250 % of control
T/C (dose: 50.0 mg/kg/injection, schedule: Q04DX003 (ip), vehicle: saline): 242 % of control and 285 % of control
T/C (dose: 75.0 mg/kg/injection, schedule: Q01DX009 (ip), vehicle: saline): 111 % of control
T/C (dose: 75.0 mg/kg/injection, schedule: Q04DX003 (ip), vehicle: saline): 285 % of control

CC(=O)C1=CC(=O)NC(=O)C1C(=O)CC(C)C (centres undefined)
T/C (dose: 1.56 mg/kg/injection, schedule: Q01DX009 (ip), vehicle: saline + alcohol): 115 % of control
T/C (dose: 3.13 mg/kg/injection, schedule: Q01DX009 (ip), vehicle: saline + alcohol): 123 % of control
T/C (dose: 6.25 mg/kg/injection, schedule: Q01DX009 (ip), vehicle: other): 118 % of control
T/C (dose: 6.25 mg/kg/injection, schedule: Q01DX009 (ip), vehicle: saline + alcohol): 106 % of control

COC(C)C(O)(C(N)=O)C(C)C (centres undefined)
T/C [15]: 95 % of control
T/C [3]: 100 % of control
T/C [16]: 86 % of control
T/C [4]: 100 % of control
T/C [17]: 90 % of control
T/C [18]: 100 % of control

Nc1nc(N)c2cc(S(=O)(=O)c3ccc4ccccc4c3)ccc2n1
T/C [19]: 90 % of control
T/C [15]: 109 % of control
T/C [3]: 90 % of control
T/C [16]: 95 % of control
T/C [4]: 104 % of control
T/C [18]: 104 % of control

Cc1cc(O)c(O)c(C(C)(C)CC(C)(C)C)c1
T/C (dose: 100.0 mg/kg/injection, schedule: Q04DX003 (ip), vehicle: saline + alcohol): 95 % of control
T/C (dose: 200.0 mg/kg/injection, schedule: Q04DX003 (ip), vehicle: saline + alcohol): 104 % of control
T/C (dose: 400.0 mg/kg/injection, schedule: Q04DX003 (ip), vehicle: saline + alcohol): 100 % of control

CCOC(=O)C(=CNc1ccccc1OC)C(=O)OCC
T/C (dose: 1.56 mg/kg/injection, schedule: Q01DX009 (ip), vehicle: saline with Tween-80): 112 % of control
T/C (dose: 3.12 mg/kg/injection, schedule: Q01DX009 (ip), vehicle: saline with Tween-80): 104 % of control
T/C (dose: 6.25 mg/kg/injection, schedule: Q01DX009 (ip), vehicle: saline with Tween-80): 102 % of control
T/C (dose: 12.5 mg/kg/injection, schedule: Q01DX009 (ip), vehicle: saline with Tween-80): 102 % of control and 116 % of control
T/C [1]: 98 % of control and 123 % of control
T/C [5]: 100 % of control and 116 % of control and 121 % of control
T/C [6]: 99 % of control
T/C [2]: 102 % of control and 114 % of control
T/C [7]: 96 % of control
T/C [8]: 109 % of control
T/C [9]: 96 % of control
T/C (dose: 400.0 mg/kg/injection, schedule: Q01DX009 (ip), vehicle: saline with Tween-80): 106 % of control
T/C [10]: 96 % of control

CC1C/C=C2\CSC(NC(=O)/C3=C\N(C/C=C/C=C/C(O)CC(O)CC(=O)N3)C2=O)C(=O)O1 (centres undefined)
T/C [15]: 91 % of control
T/C [16]: 100 % of control
T/C [17]: 91 % of control

COc1cc2oc3c(c(=O)c2c(O)c1/C=C/C(C)C)C(C=C(C)C)Oc1cc(O)ccc1-3 (centres undefined)
T/C (dose: 6.25 mg/kg/injection, schedule: Q01DX009 (ip), vehicle: Klucel (hydroxypropylcellulose) (HPC)): 94 % of control
T/C [11]: 110 % of control
T/C [12]: 108 % of control
T/C [19]: 100 % of control
T/C [15]: 107 % of control
